Where a SMILES comes first, the peptide text is derived from it. Bridges are numbered along the chain shown (N, C = ends). [ ]: non-standard residue; d: D form. The star is where a group is joined. Ileψ(thiazoline)Cys = CC[C@H](C)[C@H](N)C1=N[C@H](C(=O)*)CS1; dOrn = NCCC[C@@H](N)C(=O)O
Tested on: multi-drug resistant Burkholderia cepacia (ATCC 10856)
Assay: Spot on lawn, MHA plate: killing / diameter of clearance
Format: cell-based
Conditions: 10 μL spot, 24 to 48 hours at 37° C.

CC[C@H](C)[C@H](N)C1=N[C@H](C(=O)N[C@@H](CC(C)C)C(=O)N[C@H](CCC(=O)O)C(=O)N[C@H](C(=O)N[C@H]2CCCCNC(=O)[C@H](CC(N)=O)NC(=O)[C@@H](CC(=O)O)NC(=O)[C@H](Cc3cnc[nH]3)NC(=O)[C@@H](Cc3ccccc3)NC(=O)[C@H]([C@@H](C)CC)NC(=O)[C@@H](CCCN)NC2=O)[C@@H](C)CC)CS1 [Bacitracin] ({Ileψ(thiazoline)Cys}-L[dE]IK[dOrn]I[dF]H[dD]N; lactam 4-C)
antibacterial activity (B. cepacia (ATCC 10856)): −
antibacterial activity (Burkholderia cepacia ATCC 10856): −
